Read-outs that look alike come from different tables or passages of the source.
Key:
[1] = target: human KHK-C (Homo sapiens (Human), UniProt P50053); assay: KHK Biochemical Assay (IC50), ADP-Glo, KHK-C; conditions: average of at least two separate assays
Outline: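 ADP-Glo luminescence measured ADP made over a 4 h room-temperature reaction of ATP plus fructose, started after 30 min compound–enzyme pre-incubation. Buffer: 50 mM Hepes pH 7.4, 140 mM KCl, 5 mM MgCl2, 0.01% Triton-X. Enzyme was His-tagged, BL21 (DE3)-expressed, Ni-NTA-purified; compounds in 1:3 DMSO dilution series.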

[2] = tested on: HepG2 cells; assay: F1P Cell-Based Assay (EC50), 13C6-fructose-1-phosphate in HepG2 cells (cell culture medium or 50% human plasma)
Description: F1P Cell-Based Assay (EC50)
Compounds were serially diluted (1:3) in DMSO. The LabCyte ECHO Acoustic dispenser system was used to pre-spot the assay plates (Greiner, Catalog #781091) with 400 nL (200-fold final dilution in 80 μL assay volume) of compound. 25,000 cells/well HepG2 cells (ATCC Catalog #HB-8065) were plated in a 40 μL volume/well in DMEM medium with 4.5 g/L glucose, 1× Penicillin-Streptomycin-Glutamine, and 10% FBS, using a BioTEK dispenser in a biological hood and incubated overnight at 37° C., 5% CO2, 90% humidity. 40 μL/well serum free assay medium (for F1P assay in cell culture medium), or 40 μL/well 100% human plasma (for F1P assay in 50% human plasma) were then added to the plates on the following day, and incubated for 1 hour at 37° C., 5% CO2, 90% humidity. ^13C6-labelled fructose (Sigma, Catalog #587621) in sterile PBS was added to the plates at a final concentration of 5 mM. The plates were incubated for 2 hours at 37° C., 5% CO2, 90% humidity. The assay was quenched by washing the cells with sterile PBS and adding 60 μL/well of 80% (v/v) methanol, 2 mM ammonium acetate and 2.5 μM Crotonyl-CoA, using a BioTEK washer-dispenser system. The plates were then sealed and stored in the −80° C. freezer until ready for RapidFire readout. ^13C6-fructose-1-phosphate in individual wells was quantified using the Agilent RapidFire High-Throughput MS system in negative mode using a […]. Mobile Phase 1 consisted of 20 mM ammonium acetate with 0.05% acetic acid in 100% methanol. Mobile phase 2 consisted of 5 mM octylamine in water (pH adjusted to 5 using acetic acid). F1P signals in individual wells were normalized by crotonyl CoA internal control.

[3] = Homo sapiens, HepG2, HepG2 cells, 50% human plasma, read-out: F1P 50% HP EC50
[4] = Homo sapiens, HepG2, read-out: F1P 10% FBS EC50, HepG2 cells, cell culture medium (10% FBS)
[5] = HepG2 cells, 50% human plasma, read-out: F1P 50% HP EC50
[6] = read-out: F1P 10% FBS EC50, HepG2 cells, cell culture medium (10% FBS)

Sequence of human KHK-C (P50053 whole entry): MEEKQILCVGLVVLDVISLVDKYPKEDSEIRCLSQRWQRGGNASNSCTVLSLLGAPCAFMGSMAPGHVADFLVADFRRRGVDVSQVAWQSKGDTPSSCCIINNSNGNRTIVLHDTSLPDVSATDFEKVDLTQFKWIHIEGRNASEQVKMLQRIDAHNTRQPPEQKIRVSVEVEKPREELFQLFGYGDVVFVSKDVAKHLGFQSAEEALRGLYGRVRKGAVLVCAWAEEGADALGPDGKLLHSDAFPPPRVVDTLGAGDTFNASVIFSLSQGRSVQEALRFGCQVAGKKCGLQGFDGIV

| Structure (SMILES) | IC50 [1] [nM] | EC50 [2, 3] [nM] | EC50 [2, 4] [nM] | IC50 ([1]; ADP-Glo) [nM] | EC50 [2, 5] [nM] | EC50 [2, 6] [nM] |
| --- | --- | --- | --- | --- | --- | --- |
| C[C@H]1[C@H](O)CN1c1nc(-c2ccc3c(c2)C(C)(C)CC3NS(C)(=O)=O)c2c(n1)C(F)(F)CC2 (stereo partly drawn) [Example 630, N-(5-(7,7-difluoro-2-((2S,3R)-3-hydroxy-2-methylazetidin-1-yl)-6,7-dihydro-5H-cyclopenta[d]pyrimidin-4-yl)-3,3-dimethyl-2,3-dihydro-1H-inden-1-yl)methanesulfonamide] | 2.4 | > 500 | 68.8 | – | – | – |
| C[C@H]1[C@H](O)CN1c1nc(-c2cccc(N=S3(=O)CCCC3)c2)c2c(n1)C(F)(F)CC2 [Example 671, (2S,3R)-1-[7,7-difluoro-4-[3-[(1-oxothiolan-1-ylidene)amino]phenyl]-5,6-dihydroeyelopenta[d]pyrimidin-2-yl]-2-methyl-azetidin-3-ol] | 32.9 | 269 | 35.1 | – | – | – |
| C[C@H]1CCN1c1nc(-c2ccc3c(c2)CCNC3C(F)F)c2c(n1)C(F)(F)CC2 (stereo partly drawn) [Example 836, 6-(7,7-difluoro-2-((S)-2-methylazetidin-1-yl)-6,7-dihydro-5H-cyclopenta[d]pyrimidin-4-yl)-1-(difluoromethyl)-1,2,3,4-tetrahydroisoquinoline] | – | 158 | 16.9 | 5.8 | – | – |
| C[C@H]1CCN1c1nc(-c2ccc3c(c2)S(=O)(=O)CC3N)c2c(n1)C(F)(F)CC2 (stereo partly drawn) [Example 656, 6-[7,7-difluoro-2-[(2S)-2-methylazetidin-1-yl]-5,6-dihydrocyclopenta[d]pyrimidin-4-yl]-1,1-dioxo-2,3-dihydrobenzothiophen-3-amine] | 1.7 | 11.8 | 4.5 | – | – | – |
| [2H]C1([2H])[C@@H](O)[C@H](C)N1c1nc(-c2ccc3c(c2)OC[C@@H]3NS(C)(=O)=O)c2c(n1)C(F)(F)CC2 [Example 480, N—((R)-6-(7,7-difluoro-2-((2S,3R)-3-hydroxy-2-methylazetidin-1-yl-4,4-d2)-6,7-dihydro-5H-cyclopenta[d]pyrimidin-4-yl)-2,3-dihydrobenzofuran-3-yl)methanesulfonamide] | 0.6 | 23.7 | 9.4 | – | – | – |
| C[C@H]1[C@H](O)CN1c1nc(-c2ccc3c(c2)CC[C@]32COC(=O)N2)c2c(n1)C(F)(F)CC2 (single isomer, unassigned) [Example 475] | 15 | 207 | 104 | – | – | – |
| C[C@H]1[C@H](O)CN1c1nc(-c2ccc([C@@H](N)C(F)F)cc2)c2c(n1)C(F)(F)CC2 [Example 659, (2S,3R)-1-[4-[4-[(1R)-1-amino-2,2-difluoro-ethyl]phenyl]-7,7-difluoro-5,6-dihydrocyclopenta[d]pyrimidin-2-yl]-2-methyl-azetidin-3-ol] | 8 | 54 | 42.5 | – | – | – |
| C[C@H]1CCN1c1nc2c(c(-c3cccc(S(=N)(=O)C(F)F)c3)n1)CCC2 (stereo partly drawn) [Example 602, (difluoromethyl)(imino)(3-(2-((S)-2-methylazetidin-1-yl)-6,7-dihydro-5H-cyclopenta[d]pyrimidin-4-yl)phenyl)-λ^6-sulfanone] | 59.7 | > 500 | 92.9 | – | – | – |
| COC(=O)NC1COc2cc(-c3nc(N4C[C@@H](O)[C@@H]4C)nc4c3CCC4(F)F)cc(F)c21 (stereo partly drawn) [Example 811, methyl (6-(7,7-difluoro-2-((2S,3R)-3-hydroxy-2-methylazetidin-1-yl)-6,7-dihydro-5H-cyclopenta[d]pyrimidin-4-yl)-4-fluoro-2,3-dihydrobenzofuran-3-yl)carbamate] | – | 343 | 127 | 5.2 | – | – |
| CC(=O)NC1COc2cc(-c3nc(N4CC[C@@H]4C)nc4c3CCC4(F)F)ccc21 (stereo partly drawn) [Example 767, N-[6-[7,7-difluoro-2-[(2S)-2-methylazetidin-1-yl]-5,6-dihydrocyclopenta[d]pyrimidin-4-yl]-2,3-dihydrobenzofuran-3-yl]acetamide] | 4.8 | 97.9 | 20.9 | – | – | – |
| CCS(=N)(=O)c1cccc(-c2nc(N3C[C@@H](O)[C@@H]3C)nc3c2CCC3(F)F)c1 (stereo partly drawn) [Example 511, (3-(7,7-difluoro-2-((2S,3R)-3-hydroxy-2-methylazetidin-1-yl)-6,7-dihydro-5H-cyclopenta[d]pyrimidin-4-yl)phenyl)(ethyl)(imino)-λ^6-sulfanone] | 20.9 | 46.1 | 34.6 | – | – | – |
| N#CCC1CCN1c1nc(-c2ccc3c(c2)S(=O)(=O)CCNC3)c2c(n1)C(F)(F)CC2 (stereo not drawn) [Example 791, 2-(1-(4-(1,1-dioxido-2,3,4,5-tetrahydrobenzo[f][1,4]thiazepin-8-yl)-7,7-difluoro-6,7-dihydro-5H-cyclopenta[d]pyrimidin-2-yl)azetidin-2-yl)acetonitrile] | 80.5 | > 500 | 316 | – | – | – |
| C[C@H]1[C@H](O)CN1c1nc(-c2ccc3c(c2)[C@@H](NS(C)(=O)=O)CC3)c2c(n1)C(F)(F)CC2 (single isomer, unassigned) [Example 622] | 1.5 | 46.1 | 8.8 | – | – | – |
| CS(=O)(=O)N[C@H]1COc2cc(-c3nc(N4CC(F)(F)C4CO)nc4c3CCC4(F)F)ccc21 (stereo partly drawn) [Example 792, N-((3R)-6-(2-(3,3-difluoro-2-(hydroxymethyl)azetidin-1-yl)-7,7-difluoro-6,7-dihydro-5H-cyclopenta[d]pyrimidin-4-yl)-2,3-dihydrobenzofuran-3-yl)methanesulfonamide] | 2.2 | 140 | 57.7 | – | – | – |
| C[C@H]1[C@H](O)CN1c1nc(-c2ccc3c(c2)O[C@@H](CF)CNC3=O)c2c(n1)C(F)(F)CC2 (single isomer, unassigned) [Example 595] | 4.4 | 51 | 34.9 | – | – | – |
| COc1cc(-c2nc(N3C[C@@H](O)[C@@H]3C)nc3c2CCC3(F)F)cc2c1[C@@H](NS(C)(=O)=O)CO2 [Example 530] | 1.5 | – | – | – | 142 | 29.7 |
| COc1cc(-c2nc(N3C[C@@H](O)[C@@H]3C)nc3c2CCC3(F)F)cc2c1[C@H](NS(C)(=O)=O)CO2 (single isomer, unassigned) [Example 531] | 9 | – | – | – | 439 | 55.1 |
| C[C@H]1[C@H](O)CN1c1nc(-c2ccc3c(c2)CCC32COC(=O)N2)c2c(n1)C(F)(F)CC2 (stereo partly drawn) [Example 474, 5-(7,7-difluoro-2-((2S,3R)-3-hydroxy-2-methylazetidin-1-yl)-6,7-dihydro-5H-cyclopenta[d]pyrimidin-4-yl)-2,3-dihydrospiro[indene-1,4′-oxazolidin]-2′-one] | 1 | 45.1 | 22.5 | – | – | – |
| C[C@H]1[C@H](O)CN1c1nc(-c2ccc3c(c2)C2CC(C2)NC3=O)c2c(n1)C(F)(F)CC2 [Example 520, 7-(7,7-difluoro-2-((2S,3R)-3-hydroxy-2-methylazetidin-1-yl)-6,7-dihydro-5H-cyclopenta[d]pyrimidin-4-yl)-2,3,4,5-tetrahydro-1H-3,5-methanobenzo[c]azepin-1-one] | 11.1 | 109 | 49.8 | – | – | – |
| C[C@H]1[C@H](F)CN1c1nc(-c2ccc3c(c2)OC[C@@H]3NS(C)(=O)=O)c2c(n1)C(F)(F)CC2 [Example 523, N—((R)-6-(7,7-difluoro-2-((2S,3R)-3-fluoro-2-methylazetidin-1-yl)-6,7-dihydro-5H-cyclopenta[d]pyrimidin-4-yl)-2,3-dihydrobenzofuran-3-yl)methanesulfonamide] | 0.7 | 51.3 | 5.1 | – | – | – |
| CCOc1ccc(-c2nc(N3C[C@@H](O)[C@@H]3C)nc3c2CCC3(F)F)cc1S(N)(=O)=O [Example 764, 5-[7,7-difluoro-2-[(2S,3R)-3-hydroxy-2-methyl-azetidin-1-yl]-5,6-dihydrocyclopenta[d]pyrimidin-4-yl]-2-ethoxy-benzenesulfonamide] | 5.5 | 22.1 | 8.9 | – | – | – |
| C[C@H]1[C@H](O)CN1c1nc(-c2cccc(S(=N)(=O)C(F)F)c2)c2c(n1)C(F)(F)CC2 (stereo partly drawn) [Example 603, (3-(7,7-difluoro-2-((2S,3R)-3-hydroxy-2-methylazetidin-1-yl)-6,7-dihydro-5H-cyclopenta[d]pyrimidin-4-yl)phenyl)(difluoromethyl)(imino)-λ^6-sulfanone] | 25.5 | 103 | 77.2 | – | – | – |

From US12410160B2 (Gilead Sciences, Inc., priority 2021, dated 2025)
